One assay deals with HDAC (HeLa cell extract). The assay can be described thus: Primary assay: deacetylase activity, HeLa cell extract as source of HDAC. Type of assay: biochemical, human. Particulars: HeLa cell extract; read-out: HDAC Inhibition (IC50 unless otherwise specified) HeLa. Put shortly:
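Crude HeLa extract (freeze-thaw in 60 mM TrisCl pH 8.0, 450 mM NaCl, 30% glycerol) was incubated 1 h at 37° C with a [³H]acetyl-labelled histone H4 N-terminal peptide in 20 mM Tris pH 7.4, 10% glycerol.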

For another assay, the target named is T1, human HDAC1 (Homo sapiens, UniProt Q13547).
T1 construct: Full length human HDAC1 was cloned by PCR; Flag (C); His6 (from pAcHLT vector; purified on Ni-NTA) (N); made in house; host or cells: SF9 insect cells (baculovirus)
T1 sequence (Q13547 whole entry): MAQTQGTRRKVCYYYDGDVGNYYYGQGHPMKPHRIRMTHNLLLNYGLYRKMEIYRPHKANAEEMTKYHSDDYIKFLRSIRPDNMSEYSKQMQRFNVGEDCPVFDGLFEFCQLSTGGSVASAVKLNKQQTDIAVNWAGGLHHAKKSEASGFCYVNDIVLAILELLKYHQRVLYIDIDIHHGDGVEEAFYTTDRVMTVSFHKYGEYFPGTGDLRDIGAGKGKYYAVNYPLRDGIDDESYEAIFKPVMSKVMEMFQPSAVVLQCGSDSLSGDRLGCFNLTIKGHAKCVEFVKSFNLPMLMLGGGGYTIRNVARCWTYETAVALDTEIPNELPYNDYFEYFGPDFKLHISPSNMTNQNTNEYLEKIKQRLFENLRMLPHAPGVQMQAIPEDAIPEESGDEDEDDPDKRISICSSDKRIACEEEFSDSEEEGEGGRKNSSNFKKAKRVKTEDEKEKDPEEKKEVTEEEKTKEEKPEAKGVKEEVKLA
The assay can be described thus: Primary assay: deacetylase activity, recombinantly produced HDAC1. It is filed as biochemical. The note with it: recombinant HDAC1; read-out: HDAC Inhibition (IC50 unless otherwise specified) HDAC1. The text has this: (§1) Briefly, this assay relies on the release of radioactive acetate from a radioactively labelled histone fragment by the action of HDAC enzyme. Test compounds, which inhibit HDAC, reduce the yield of radioactive acetate. Signal (e.g., scintillation counts) measured in the presence and absence of a test compound provide an indication of that compound's ability to inhibit HDAC activity. Decreased activity indicates increased inhibition by the test compound.
(§2) The histone fragment was an N-terminal sequence from histone H4, and it was labelled with radioactively labelled acetyl groups using tritiated acetylcoenzyme A (coA) in conjunction with an enzyme which is the histone acetyltransferase domain of the transcriptional coactivator p300. […] The acetylated peptide was then separated from free acetyl coA by size exclusion chromatography on Sephadex G-15 (Sigma G-15-120), using distilled H2O as the mobile phase.
(§3) After purification of the radiolabelled histone fragment, it was incubated with a source of HDAC (e.g., an extract of HeLa cells (a rich source of HDAC), recombinantly produced HDAC1 or HDAC2) and any released acetate was extracted into an organic phase and quantitatively determined using scintillation counting. By including a test compound with the source of HDAC, that compound's ability to inhibit the HDAC was determined.
Full length human HDAC1 was cloned by PCR using a λgt11 Jurkat cDNA library (Clontech-HL5012b). The amplified fragment was inserted into the EcoRI-Sall sites of pFlag-CTC vector (Sigma-E5394), in frame with the Flag tag. A second PCR was carried out in order to amplify a fragment containing the HDAC1 sequence fused to the Flag tag.
(§4) Amplification of recombinant viruses was performed according to the Pharmingen Instruction Manual.
(§5) For protein production, 2×10^7 cells were infected with the appropriate recombinant virus for 3 days. Cells were then harvested and spun at 3,000 rpm for 5 minutes. They were then washed twice in PBS and resuspended in 2 pellet volumes of lysis buffer (25 mM HEPES pH 7.9, 0.1 mM EDTA, 400 mM KCl, 10% glycerol, 0.1% NP-40, 1 mM AEBSF). Resuspended cells were frozen on dry ice and thawed at 37° C. 3 times and centrifuged for 10 minutes at 14,000 rpm. […] Incubation was carried out at 4° C. for 1 hour on a rotating wheel. The slurry was then centrifuged at 500 g for 5 minutes. Beads were washed twice in 1 ml of wash buffer (25 mM HEPES pH7.9, 0.1 mM EDTA, 150 mM KCl, 10% glycerol, 0.1% NP-40, 1 mM AEBSF). Protein was eluted 3 times in 300 μl elution buffer (25 mM HEPES pH 7.9, 0.1 mM EDTA, 250 mM KCl, 10% glycerol, 0.1% NP-40, 1 mM AEBSF) containing increasing concentrations of imidazole: 0.2 M, 0.5 M and 1 M. Each elution was performed for 5 minutes at room temperature. Eluted protein was kept in 50% glycerol at −70° C.
(§6) A source of HDAC (e.g., 2 μL of crude HeLa extract, 5 μL of HDAC1 or HDAC2; in elution buffer, as above) was incubated with 3 μL of radioactively labelled peptide along with appropriate dilutions of candidate compounds (1.5 μL) in a total volume of 150 μL of buffer (20 mM Tris pH 7.4, 10% glycerol). The reaction was carried out at 37° C. for one hour, after which the reaction was stopped by adding 20 μL of 1 M HCl/0.4 M sodium acetate. […] Radioactivity was measured using a Tri-Carb 2100TR Liquid Scintillation Analyzer (Packard).
(§7) Percent activity (% activity) for each test compound was calculated as: % activity={(S^C−B)/(S^o−B)}×100 wherein S^C denotes signal measured in the presence of enzyme and the compound being tested, S^o denotes signal measured in the presence of enzyme but in the absence of the compound being tested, and B denotes the background signal measured in the absence of both enzyme and compound being tested.

In another assay the target is T2, human HDAC2 (Homo sapiens, UniProt Q92769).
T2 construct: Full length human HDAC2 was subcloned; Flag (C); His6 (from pAcHLT-A vector; purified on Ni-NTA) (N); made in house; host or cells: SF9 insect cells (baculovirus)
T2 sequence (Q92769 whole entry): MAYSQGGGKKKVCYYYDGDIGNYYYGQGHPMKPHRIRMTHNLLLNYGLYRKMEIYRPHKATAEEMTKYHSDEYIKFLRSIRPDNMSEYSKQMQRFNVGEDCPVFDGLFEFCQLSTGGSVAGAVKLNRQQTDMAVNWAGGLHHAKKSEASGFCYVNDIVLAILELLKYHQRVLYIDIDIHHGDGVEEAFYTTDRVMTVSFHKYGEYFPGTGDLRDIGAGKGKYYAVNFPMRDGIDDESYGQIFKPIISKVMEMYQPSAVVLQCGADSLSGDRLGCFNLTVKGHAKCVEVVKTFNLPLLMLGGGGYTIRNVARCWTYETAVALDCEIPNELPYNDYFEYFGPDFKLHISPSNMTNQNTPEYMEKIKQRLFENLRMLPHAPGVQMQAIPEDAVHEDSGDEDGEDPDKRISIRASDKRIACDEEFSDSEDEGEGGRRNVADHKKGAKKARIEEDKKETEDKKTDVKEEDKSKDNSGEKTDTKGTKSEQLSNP
The assay can be described thus: Primary assay: deacetylase activity, recombinantly produced HDAC2. It is filed as biochemical. Particulars: recombinant HDAC2; read-out: HDAC Inhibition (IC50 unless otherwise specified) HDAC2.
Text: as §1, §2, §3, §4, §5, §6, §7

The next assay relates to HeLa cells. The assay can be described thus: Secondary assay: cell proliferation WST-1, HeLa. Type of assay: cell-based. Particulars: Homo sapiens, 48 h, read-out: Cell Proliferation Inhibition WST-1 (IC50 unless otherwise specified) HeLa. Put shortly: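 Absorbance at 450 nm (reference 690 nm); % activity vs untreated after blank subtraction, IC50 fitted with top 100 and bottom 0.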

The subject of assay [1] is K11 HPV E7 transformed human keratinocyte line. The assay can be described thus: Secondary assay: cell proliferation WST-1, K11. Type of assay: cell-based. Particulars: Homo sapiens, Keratinocyte, 48 h, read-out: Cell Proliferation Inhibition WST-1 (IC50 unless otherwise specified) K11.
In assay [2] the test system is NHEK-Ad primary human adult keratinocyte line. The assay can be described thus: Secondary assay: cell proliferation WST-1, NHEK-Ad. It is filed as cell-based. The note with it: Homo sapiens, Keratinocyte; NHEK-AD, 48 h; read-out: Cell Proliferation Inhibition WST-1 (IC50 unless otherwise specified) NHEK-AD. As to the method:
Compounds with HDAC inhibition activity, as determined using the primary assay, were subsequently evaluated using secondary cell-based assays. The following cell lines were used:
NHEK-Ad—Primary human adult keratinocyte line (Cambrex Corp., East Rutherford, N.J., USA).
Cells were plated in 96-well plates at 3-10×10^3 cells/well in 100 μL of culture medium. The following day, different concentrations of candidate compounds were added and the cells incubated at 37° C. for 48 h. Subsequently, 10 μL/well of WST-1 reagent was added and the cells reincubated for 1 hour. After the incubation time, absorbance was measured.
WST-1 is a tetrazolium salt which is cleaved to formazan dye by cellular enzymes. An expansion in the number of viable cells results in an increase in the overall activity of mitochondrial dehydrogenases in the sample. This augmentation in the enzyme activity leads to an increase in the amount of formazan dye formed, which directly correlates to the number of metabolically active cells in the culture. The formazan dye produced is quantified by a scanning multiwell spectrophotometer by measuring the absorbance of the dye solution at 450 nm wavelength (reference wavelength 690 nm).
Percent activity (% activity) in reducing the number of viable cells was calculated for each test compound as: % activity={(S^C−B)/(S^o−B)}×100 wherein S^C denotes signal measured in the presence of the compound being tested, S^o denotes signal measured in the absence of the compound being tested, and B denotes the background signal measured in blank wells containing medium only.
IC50 values were calculated using the software package Prism 3.0 (GraphPad software Inc., San Diego, Calif.), setting top value at 100 and bottom value at 0.

The next assay relates to JURKAT human T-cell line. The assay can be described thus: Secondary assay: cell proliferation WST-1, Jurkat. Type of assay: cell-based. The note with it: Homo sapiens, 48 h, read-out: Cell Proliferation Inhibition WST-1 (IC50 unless otherwise specified) Jurkat.

The structures appear in SMILES notation.

Regarding `O=C(/C=C/C=C/c1ccccc1)NCCCCCC(=O)NO` [PX105553, 4-(2E)(4E)-5-Phenyl-penta-2,4-dienoic acid (5-hydroxycarbamoyl-pentyl)-amide], the IC50 in the assay with HDAC (HeLa cell extract) stood at 18 nM; at human HDAC1 it was 38 nM; at human HDAC2 it was 47 nM; in the assay on HeLa cells, 5.7 µM; in assay [1] it was 7.5 µM; in assay [2], 2400 nM. Besides, the IC50 in the assay on JURKAT human T-cell line was 3.7 µM.

(Values after patent publication US7569724B2, “Carbamic acid compounds comprising an amide linkage as HDAC inhibitors” (Topotarget UK Limited, priority 2000, dated 2009).)
